From patent US9233163B2, “Hydrolytically releasable prodrugs for sustained release nanoparticle formulations” (The Children's Hospital of Philadelphia, priority 2010, dated 2016)

Columns and labels:
[1] = system: rat aortic smooth muscle cells (A10); assay: A10 growth inhibition by PTX derivatives, Alamar Blue assay; type: cell-based; conditions: free compound, 2 hr incubation, cell viability 7 days post treatment vs untreated cells
Experimental: Cells seeded at 10% confluency on 96-well plates were incubated with the compounds at indicated PTX molar equivalent doses for 2 hr, and the cell viability was compared to that of untreated cells 7 days post treatment using the Alamar Blue assay.

[2] = Model experiments estimating stability of ester bonds (half-hydrolysis in phosphate buffer); type: physicochemical; conditions: pH=7 phosphate buffer at 21-22° C.
From the text: Based on the results of the model experiments, paclitaxel 2′-esters with N-acylglycines and acyloxyacetic acids containing highly hydrophobic residues (e.g., derived from cholesterol or tocopherol) are the most suitable for encapsulation in sustained release nanoparticle formulations as rapidly cleavable PTX prodrugs. In the context of in-stent restenosis therapy, these unique designs more effectively confine the drug formulated in magnetically targeted MNP to the stented area. Importantly, the by-products of the prodrug degradation deriving from the anchor and the linking group are all biocompatible endogenous small molecules, rapidly eliminated via natural metabolic pathways.

[3] = In vitro release kinetics and recovery from MNP, external sink method; type: physicochemical; conditions: for total recovered (release medium samples and upon experiment termination): MNP diluted 1:500 in phosphate buffer with 2% bovine serum albumin, heptane/1-octanol acceptor, 5-day experiment; for initial drug payload still present in the MNP: at the end of the 5-day experiment, extraction in 1-octanol
Experimental: The release of 2′-PTX-glycol-suc-Chol from MNP was measured in comparison with PTX using the external sink method. A 1:1 mixture of heptane and 1-octanol was used as the acceptor medium to ensure perfect sink conditions. MNP were diluted 1:500 in phosphate buffer containing 2% bovine serum albumin, included to more closely model in vivo conditions. Released drug was assayed spectrophotometrically in the acceptor phase at predetermined timepoints (λ=230 nm). After five days the amount of the compounds remaining in MNP was measured following extraction in 1-octanol.

[4] = Drug release from typical PTX MNP under sink conditions; type: physicochemical; conditions: MNP comprising PTX, iron oxides and polylactide carrier
From the text: For example in a typical MNP comprising PTX, iron oxides and a polylactide carrier, about 50% and 80% of the drug is released under sink conditions after 4 hr and 24 hr, respectively. This may be too fast for optimal restenosis inhibition, given that the period of vulnerability to restenotic activity may extend for several weeks. It is believed that the large surface area to volume ratio and small linear dimensions of nanoparticles, combined with the relatively low molecular weight of PTX and limited affinity toward the carrier particles, result in the excessively rapid PTX escape from the nanoparticles. To deal with this problem, it has been found necessary to greatly increase the affinity of the PTX for the polymeric carrier. This has now been done by binding PTX to a structure (hereinafter “anchor”) that limits the diffusivity within the MNP compared with that of unbound PTX itself. The resulting PTX-anchor conjugate is a PTX prodrug. Prodrugs according to the invention are converted to the corresponding drugs (e.g., PTX) in vivo in a patient, which may be a human or other animal. The prodrug can be incorporated in the MNP with a high entrapment yield and can provide protracted drug release at the site of arterial injury.

[5] = system: A10 cells; assay: A10 inhibition by MNP after 4-day incubation with fetal bovine serum at 37° C. (recovered activity); type: cell-based, rat; conditions: MNP incubated 4 days in FBS at 37° C. vs fresh MNP, magnetic conditions, 5-20 ng drug per well
Experimental: MNP loaded with 2′-PTX-glycol-suc-Chol or PTX at 1 mg/mL were diluted 1:500 in fetal bovine serum (FBS), placed on a tube rotator and incubated for 4 days at 37° C. modeling the exposure of stent-targeted MNP to the in vivo environment. MNP suspensions were then applied to A10 cells for 5 min in the presence of a high gradient magnetic field (See Example 9) in a dose range equivalent to 5-20 ng drug per well based on their initial drug loading. Their growth inhibitory effect was compared with that of fresh MNP applied in equivalent dilutions under magnetic conditions, and the ratio between their respective inhibition efficiencies was plotted as Recovered activity, % of control (See FIG. 4).

[6] = system: A10 cells; assay: Magnetically guided A10 growth inhibition by MNP loaded with PTX derivatives; type: cell-based, rat; conditions: compounds formulated in MNP, 5 min exposure, high gradient magnetic field (32.5 T/m), viability 7 days post treatment
Experimental: Polylactide-based MNP were formulated with inclusion of nanocrystalline magnetite by a modification of the emulsification-solvent evaporation method. Ferric chloride hexahydrate and ferrous chloride tetrahydrate (170 and 62.5 mg, respectively) were dissolved in ethanol (2.5 mL) and mixed with freshly prepared aqueous sodium hydroxide (0.5 N, 5 mL). The precipitate was heated for 1 min at 90° C., cooled on ice, and separated on a magnet. The obtained magnetite was stirred with a solution of oleic acid in ethanol (150 mg in 2 mL) at 90° C. for 5 min. Free oleic acid was separated by deionized water. Magnetite was washed with ethanol, dispersed in 8 mL of chloroform, and used to dissolve 100 mg of poly(D,L-lactide) (molecular weight 75,000-120,000 Da) and 15 mg PTX or a PTX prodrug. The organic dispersion was emulsified by sonication on ice in 10 mL of an aqueous solution of bovine serum albumin (1% w/v), and the organic solvent was evaporated under reduced pressure. MNP were washed twice by magnetic decantation, resuspended in 6 mL of aqueous trehalose (10% w/v), passed through a sterile 5 μm filter unit and lyophilized. […]
Cells were incubated with indicated doses of the compounds formulated in MNP for 5 min with or without (mag+ or mag−) the presence of a high gradient magnetic field (average field gradient of 32.5 T/m). Cell viability was determined as above 7 days post treatment.

Structure (SMILES): CC(=O)OC1C(=O)C2(C)C(O)CC3OCC3(OC(C)=O)C2C(OC(=O)c2ccccc2)C2(O)CC(OC(=O)C(OC(=O)CCC(=O)OC3CCC4(C)C(=CCC5C4CCC4(C)C(C(C)CCCC(C)C)CCC54)C3)C(NC(=O)c3ccccc3)c3ccccc3)C(C)=C1C2(C)C (stereo not shown) [2′-PTX-suc-Chol]
- A10 cell growth inhibition [1]: no growth inhibition

Structure (SMILES): CCOC(=O)COC(C)=O [ethyl ester of acetoxyacetic acid]
- time of half-hydrolysis [2]: 9 days

Structure (SMILES): CC(=O)O[C@H]1C(=O)[C@@]2(C)[C@H]([C@H](OC(=O)c3ccccc3)[C@]3(O)C[C@H](OC(=O)[C@H](O)[C@@H](NC(=O)c4ccccc4)c4ccccc4)C(C)=C1C3(C)C)[C@]1(OC(C)=O)CO[C@@H]1C[C@@H]2O [PTX, Paclitaxel]
- total recovered (release medium samples and upon experiment termination) [3]: 55%
- initial drug payload still present in the MNP [3]: none
- drug released ([4]; after 4 hr): about 50%
- drug released ([4]; after 24 hr): ~80%

Structure (SMILES): CCOC(C)=O [ethyl acetate]
- time of half-hydrolysis [2]: approximately 200 days

Structure (SMILES): CCOC(=O)CNC(C)=O [ethyl ester of N-acetylglycine, ethyl esters of N-acetylglycine]
- time of half-hydrolysis [2]: 27 days

Structure (SMILES): CC(=O)O[C@H]1C(=O)[C@@]2(C)[C@H]([C@H](OC(=O)c3ccccc3)[C@]3(O)CC(OC(=O)[C@H](OC(=O)COC(=O)CCC(=O)O[C@H]4CC[C@@]5(C)C(=CCC6C7CCC(C(C)CCCC(C)C)[C@@]7(C)CCC65)C4)[C@@H](NC(=O)c4ccccc4)c4ccccc4)C(C)=C1C3(C)C)[C@]1(OC(C)=O)CO[C@@H]1C[C@@H]2O (stereo partly shown) [2′-PTX-glycol-suc-Chol, PTX 2′-(3-cholesteryloxycarbonyl)propionyloxyacetate]
- total recovered (release medium samples and upon experiment termination) [3]: 81%
- initial drug payload still present in the MNP [3]: 30%
- release kinetics from MNP vs. PTX ([3]; external sink method, 5 days): significantly slower release kinetics
- A10 cell growth inhibition [1]: dose-dependent A10 cell growth inhibition
- Recovered activity, % of control (fraction of initial activity retained) [5]: retained a larger fraction of its initial activity compared to PTX
- A10 cell growth inhibition, magnetic field (mag+) [6]: comparable to that of MNP loaded with PTX

Structure (SMILES): CC(=O)O[C@H]1C(=O)[C@@]2(C)[C@H]([C@H](OC(=O)c3ccccc3)[C@]3(O)CC(OC(=O)[C@H](OC(=O)CNC(=O)CCC(=O)O[C@H]4CC[C@@]5(C)C(=CCC6C7CCC(C(C)CCCC(C)C)[C@@]7(C)CCC65)C4)[C@@H](NC(=O)c4ccccc4)c4ccccc4)C(C)=C1C3(C)C)[C@]1(OC(C)=O)CO[C@@H]1C[C@@H]2O (stereo partly shown) [2′-PTX-glycine-suc-Chol, PTX 2′-[N-(3-cholesteryloxycarbonyl)propionyl]glycinate]
- A10 cell growth inhibition [1]: dose-dependent A10 cell growth inhibition
- A10 cell growth inhibition, magnetic field (mag+) [6]: comparable to that of MNP loaded with PTX
